Measurements taken from patent publication US20260103474A1, “NOVEL COMPOUNDS FOR THE DIAGNOSIS OF TDP-43 PROTEINOPATHIES” (AC IMMUNE SA, priority 2022, published 2026).
Where two headings read alike, the source gives them in different places.

Experiments:
Abeta = target: T1, Abeta (Homo sapiens, UniProt P05067); test: Radiobinding competition assay using Abeta reference compound on AD insoluble fraction of brain homogenates; type: binding; conditions: against [3H]Abeta reference compound
T1 construct: an AD donor with confirmed burden of Tau and Abeta aggregates; from tissue; host or cells: frontal cortex of a human AD donor, Triton/sucrose-insoluble fraction
T1 sequence (P05067 672-713 limits assumed): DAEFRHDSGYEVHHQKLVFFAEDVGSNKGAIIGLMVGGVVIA
Procedure: (§1) Approximately 4 g of frozen tissue block from frontal cortex brain region was used from an AD donor with confirmed burden of Tau and Abeta aggregates. The tissue was homogenized in three volumes (1:3 w/v) of high salt buffer (50 mM Tris-HCl pH 7.5, 750 mM NaCl, 5 mM EDTA) supplemented with protease inhibitors (Complete; Roche 11697498001) at 4° C. with a glass Dounce homogenizer. The homogenate was transferred into polycarbonate centrifuge bottles (16×76 mm; Beckman 355603) and centrifuged at 100,000×g (38,000 RPM) in an ultracentrifuge (Beckman, XL100K) for 60 minutes at 4° C. using a pre-cooled 70.1 rotor (Beckman, 342184). Pellets were resuspended in high salt buffer supplemented with 1% Triton X-100 and homogenized at 4° C. with a syringe. The homogenates were centrifuged again at 100,000×g (38,000 RPM, 70.1 rotor) for 60 minutes at 4° C. Pellets were resuspended in high salt buffer supplemented with 1% Triton X-100 and 1 M sucrose and homogenized at 4° C. with a syringe. The homogenates were centrifuged at 100,000×g (38,000 RPM, 70.1 rotor) for 60 minutes at 4° C. The resulting pellets containing insoluble fraction were resuspended in PBS (1:2 w/v relative to starting tissue weight), aliquoted and stored at −80° C. until use.
The reaction was performed in assay buffer (50 mM Tris pH 7.5 in 0.9% NaCl, 0.1% BSA) and incubated for two hours at room temperature (RT). Samples in duplicate were then filtered under vacuum in GF/C filter plates (PerkinElmer) to trap the aggregates with the bound radioligand and washed with 100 μL ice-cold 50 mM Tris pH 7.5. The GF/C filters were then dried and scintillation liquid (UltimateGold, PerkinElmer, 6013151) was added in each well. The filters were analyzed on a Microbeta2 scintillation counter (PerkinElmer). Values for the maximal signal were obtained in the absence of non-radiolabeled compound, while 100% displacement was obtained using 1 μM of non-radiolabeled reference compound. Ki values were calculated by nonlinear regression, using a one site—fit Ki model in Prism V7 (GraphPad).

[1] = test system: AD brain homogenates (containing Abeta and Tau); test: Radiobinding assay (direct binding, Kd) on AD insoluble fraction of brain homogenates; design: species or system human; conditions: saturation binding of tritiated compound
Procedure: as §1, with “The homogenates were centrifuged at 100,000×g (38,000 RPM, 70.1 rotor) for 60 minutes at 4° C. The resulting pellets containing insoluble fraction were resuspended in PBS (1:2 w/v relative to starting tissue weight), aliquoted and stored at −80° C. until use.” left out
The AD insoluble fraction was incubated with [^3H]Compound 1, [^3H]Compound 17 or [^3H]Abeta reference compound ([^3H]Abeta ref) at different concentrations. […] The filters were analyzed on a Microbeta scintillation counter (PerkinElmer). Specific binding was calculated by subtracting the non-specific signal from the total signal. […]

[2] = target: T2, PD brain-derived a-synuclein aggregates (Homo sapiens, UniProt P37840); test: Micro-radiobinding direct binding on PD brain-derived a-synuclein aggregates; conditions: tritiated compound 0.6 to 200 nM
T2 construct: from tissue; host or cells: frozen brain tissue of PD donors, 1% sarkosyl-insoluble pellet
Procedure: The procedure was adapted from the protocol described in Spillantini et al., 1998. Frozen tissue blocks from PD donors were thawed on ice and homogenized using a glass dounce homogenizer. The homogenate was then centrifuged at 11,000×g (12,700 RPM) in an ultracentrifuge (Beckman, XL100K) for 20 minutes at 4° C. using a pre-cooled 70.1 rotor (Beckman, 342184). Pellets were resuspended in extraction buffer [10 mM Tris-HCl pH 7.4, 10% sucrose, […], 1% protease inhibitor (Calbiochem 539131), 1 mM EGTA, 1% phosphatase inhibitor (Sigma P5726 and P0044)] and centrifuged at 15,000×g (14,800 RPM, a 70.1 Ti rotor) for 20 minutes at 4° C. […]
PD brain-derived a-synuclein aggregates and AD brain-derived Tau PHF aggregates were spotted onto microarray slides. […] Quantification of signal was performed by using the image analysis software Beamage (ai4R). Non-specific signal was determined with an excess of non-radiolabelled compound (2 μM) and specific binding was calculated by subtracting the non-specific signal from the total signal. Competition was calculated as percentage, where 0% was defined as the specific binding in the presence of vehicle and 100% as the values obtained in the presence of excess of the non-radiolabelled a-syn reference compound. Ki values were calculated in GraphPad Prism7 by applying a nonlinear regression curve fit using a one site, specific binding model. […]

[3] = cells printed in μM, read-out: Ki on AD brain homogenates

Direct binding in AD brain homogenates (containing Abeta and Tau) [1]	Direct binding in PD brain-derived a-synuclein aggregates [2]	SMILES	Ki (Abeta; [3])	Ki (Abeta; read-out: Ki (nM) on AD brain homogenates)
–	–	O=C1c2sc(-c3ccc(N4CC[C@@H](F)C4)nc3F)nc2CCN1c1cccnc1 [Compound 1, 2-[2-fluoro-6-[(3R)-3-fluoropyrrolidin-1-yl]-3-pyridyl]-5-(3-pyridyl)-6,7-dihydrothiazolo[5,4-c]pyridin-4-one]	> 1 µM	> 1 µM
–	–	O=C1c2sc(-c3ccc(N4CCC(CO)CC4)nc3F)nc2CCN1c1cccnc1 [Compound 17, 2-(2-fluoro-6-(4-(hydroxymethyl)piperidin-1-yl)pyridin-3-yl)-5-(pyridin-3-yl)-6,7-dihydrothiazolo[5,4-c]pyridin-4(5H)-one]	> 1 µM	–
No significant binding	No significant binding	[3H]c1cncc(N2CCc3nc(-c4cc([3H])c(N5CC[C@@H](F)C5)nc4F)sc3C2=O)c1 [[^3H]-Compound 1, tritiated 2-[2-fluoro-6-[(3R)-3-fluoropyrrolidin-1-yl]-3-pyridyl]-5-(3-pyridyl)-6,7-dihydrothiazolo[5,4-c]pyridin-4-one]	–	–
No significant binding	No significant binding	[3H]C([3H])(O)C1CCN(c2ccc(-c3nc4c(s3)C(=O)N(c3cccnc3)CC4)c(F)n2)CC1 [[^3H]-Compound 17, 2-(2-fluoro-6-(4-(hydroxymethyl-t2)piperidin-1-yl)pyridin-3-yl)-5-(pyridin-3-yl)-6,7-dihydrothiazolo[5,4-c]pyridin-4(5H)-one]	–	–
